Assay results taken from patent US20260083851A1 (AVILAR THERAPEUTICS, INC., priority 2022, published 2026).

Biological target: T1, ASGP receptor (biotinylated ASGPR) (Homo sapiens, UniProt P07306)
T1 construct: biotin (biotinylated)
T1 sequence (P07306 1-291): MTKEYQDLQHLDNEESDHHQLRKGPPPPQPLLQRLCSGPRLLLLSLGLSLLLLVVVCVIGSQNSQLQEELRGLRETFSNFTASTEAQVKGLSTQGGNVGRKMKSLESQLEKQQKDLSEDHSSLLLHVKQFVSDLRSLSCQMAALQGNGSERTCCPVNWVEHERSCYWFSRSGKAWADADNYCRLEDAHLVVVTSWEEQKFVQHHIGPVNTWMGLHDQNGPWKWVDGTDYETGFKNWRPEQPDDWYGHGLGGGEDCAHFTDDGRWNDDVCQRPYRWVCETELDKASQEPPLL
Assay type: binding
Details: SPR, Biacore 8K, 25° C.; Table 1A; read-out: ASGPR KD

SMILES | Kd [µM]
O=C(NC[C@H]1OC[C@H](Nc2cncc(C(F)(F)F)n2)[C@@H](O)[C@H]1O)c1cnc2ccccc2c1 [A8, N-(((2R,3R,4R,5S)-3,4-dihydroxy-5-((6-(trifluoromethyl)pyrazin-2-yl)amino)tetrahydro-2H-pyran-2-yl)methyl)quinoline-3-carboxamide] | < 10
O[C@@H]1[C@H](O)[C@@H](Nc2cncc(C(F)(F)F)n2)CO[C@@H]1CN1CCN(Cc2ccccc2)CC1 [A9, (2R,3R,4R,5S)-2-((4-benzylpiperazin-1-yl)methyl)-5-((6-(trifluoromethyl)pyrazin-2-yl)amino)tetrahydro-2H-pyran-3,4-diol] | < 10
O=C(NC[C@H]1OC[C@H](Nc2cncc(C(F)(F)F)n2)[C@@H](O)[C@H]1O)c1ccc(-c2ccccc2)cc1 [A10, N-(((2R,3R,4R,5S)-3,4-dihydroxy-5-((6-(trifluoromethyl)pyrazin-2-yl)amino)tetrahydro-2H-pyran-2-yl)methyl)-[1,1′-biphenyl]-4-carboxamide] | < 10
O=C(NC[C@H]1OC[C@H](Nc2cncc(C(F)(F)F)n2)[C@@H](O)[C@H]1O)c1ccc2occc2c1 [A11, N-(((2R,3R,4R,5S)-3,4-dihydroxy-5-((6-(trifluoromethyl)pyrazin-2-yl)amino)tetrahydro-2H-pyran-2-yl)methyl)benzofuran-5-carboxamide] | < 10
O=C(CC12CC3CC(CC(C3)C1)C2)NC[C@H]1OC[C@H](Nc2cncc(C(F)(F)F)n2)[C@@H](O)[C@H]1O [A12, 2-((3R,5R,7R)-adamantan-1-yl)-N-(((2R,3R,4R,5S)-3,4-dihydroxy-5-((6-(trifluoromethyl)pyrazin-2-yl)amino)tetrahydro-2H-pyran-2-yl)methyl)acetamide] | < 10
O=C(NC[C@H]1OC[C@H](Nc2cncc(C(F)(F)F)n2)[C@@H](O)[C@H]1O)c1nc2ccccc2[nH]1 [A13, N-(((2R,3R,4R,5S)-3,4-dihydroxy-5-((6-(trifluoromethyl)pyrazin-2-yl)amino)tetrahydro-2H-pyran-2-yl)methyl)-1H-benzo[d]imidazole-2-carboxamide] | < 10

Now from value to compound:

Kd [µM] | SMILES
< 10 | O=C(O)COc1ccc(CC(=O)NC[C@H]2OC[C@H](Nc3cncc(C(F)(F)F)n3)[C@@H](O)[C@H]2O)cc1 [A1, 2-(4-(2-((((2R,3R,4R,5S)-3,4-dihydroxy-5-((6-(trifluoromethyl)pyrazin-2-yl)amino)tetrahydro-2H-pyran-2-yl)methyl)amino)-2-oxoethyl)phenoxy)acetic acid]
< 10 | O=C(NC[C@H]1OC[C@H](Nc2cncc(C(F)(F)F)n2)[C@@H](O)[C@H]1O)c1ccc2c(c1)CCNC2 [A3, N-(((2R,3R,4R,5S)-3,4-dihydroxy-5-((6-(trifluoromethyl)pyrazin-2-yl)amino)tetrahydro-2H-pyran-2-yl)methyl)-1,2,3,4-tetrahydroisoquinoline-6-carboxamide]
< 10 | O=C(NC[C@H]1OC[C@H](Nc2cncc(C(F)(F)F)n2)[C@@H](O)[C@H]1O)c1ncccn1 [A4, N-(((2R,3R,4R,5S)-3,4-dihydroxy-5-((6-(trifluoromethyl)pyrazin-2-yl)amino)tetrahydro-2H-pyran-2-yl)methyl)pyrimidine-2-carboxamide]
< 10 | COCCO[C@H]1O[C@H](CO)[C@H](O)[C@H](O)[C@H]1Nc1cncc(C(F)(F)F)n1 [A5]
< 10 | O=C(NC[C@H]1OC[C@H](Nc2cncc(C(F)(F)F)n2)[C@@H](O)[C@H]1O)c1ccc2[nH]cnc2c1 [A6, N-(((2R,3R,4R,5S)-3,4-dihydroxy-5-((6-(trifluoromethyl)pyrazin-2-yl)amino)tetrahydro-2H-pyran-2-yl)methyl)-1H-benzo[d]imidazole-5-carboxamide]
< 10 | O=C(NC[C@H]1OC[C@H](Nc2cncc(C(F)(F)F)n2)[C@@H](O)[C@H]1O)c1ccc(-c2ccccc2)nc1 [A7, N-(((2R,3R,4R,5S)-3,4-dihydroxy-5-((6-(trifluoromethyl)pyrazin-2-yl)amino)tetrahydro-2H-pyran-2-yl)methyl)-6-phenylnicotinamide]
